From patent US20100215618A1, “NOVEL COMPOUNDS - 644” (Arrow Therapeutics Limited, priority 2009, published 2010)
Read-outs that look alike come from different tables or passages of the source.

Experiments:
[1] = test system: HCV genotype 1a replicon cells Htat2ANeo; experiment: 1a Replicon Assay (cell-based anti-NS5a ELISA); details: Hepatitis C virus, 72 h
Procedure: HCV genotype la replicon cells Htat2ANeo (University of Texas), containing neomycin phosphotransferase fusion protein and EMCV-IRES driven HCV polyprotein with cell culture adaptive mutations, and control cells, Et2AN.
Cells were cultured at 37° C./5% CO2 and split twice a week. G418 at 0.5 mg/ml and Blastocidin at 2 mg/ml were added to the culture medium but not the assay medium.
The culture medium consisted of DMEM with […] glucose and Glutamax (Gibco 61965-026) supplemented with 1× non-essential amino acids (Invitrogen 11140-035), 0.5 mg/ml G418 (Invitrogen 10131-027), 2 mg/ml Blastocidin (PAA) and 10% is Australian foetal calf serum (Invitrogen 10099-141).
Replicon and control cells were trypsinised and counted. Replicon cells were diluted to 90,000 cells/ml and 100 μl of this used to seed columns 2-4, […] and 10-12 of a black, clear bottom 96-well plate for every three compounds to be tested for IC50. Control cells were diluted to 60,000 cells/ml and 100 μl of this used to seed columns 1, 5 and 9 of the plate. Well H1 was left empty as the blank. Plates were then incubated at 37° C./5% CO2 for 24 h.
On the following day compound dilutions were prepared in medium at twice their desired final concentration in a clear round bottomed plate.
Controls and compounds were transferred from the dilution plate to the assay plates (containing the cells) at 100 μl/well in quadruplicate wells, one well containing control cells and 3 wells containing replicon cells.
Exception: no compound was added to row H of the plate and 100 μl of 1% DMSO was added to these instead. Plates were then incubated at 37° C. with 5% CO2 for 72 h. At the end of the incubation time, any reduction in cell viability was assayed and a cell-based enzyme linked immunosorbent assay (ELISA) was performed. The media/compound was removed from all wells and replaced with 100 μl/well serum-free media and 20 μl/well Cell Titre Blue (Promega G8081). Following incubation at 37° C./5% CO2 for 2 h plates were read on a microplate fluorometer (Molecular Devices) using an excitation of 570 nm and an emission of 590 nm The TD50, the concentration of drug required to reduce 50% of Cell Titre Blue relative to the DMSO controls, was calculated by plotting the fluorescence at 590 nm after substraction of background against drug concentration.
The media/Cell Titre Blue was removed and plates washed in PBS and gently tapped dry before addition of 50 μL per well of 75% acetone/25% methanol mixture for 3 minutes. The fixative was then discarded and wells were washed with PBS before addition of 100 μl/well of blocking solution (2% non-fat dry milk and 0.05% Tween-20 in 0.85% NaCl). Plates were then incubated at 37° C. in a shaking incubator for 60 min. Blocking solution was discarded and 50 μl of mouse anti-NS5a antibody (Virostat 1877) at 1:100 dilution in blocking buffer was added to all wells. Plates were incubated at 37° C. in a shaking incubator for 90 min Antibody was then discarded and plates were washed 4 times by immersion in 0.85% NaCl/0.05% Tween-20. After washing plates were tapped dry gently and 50 μl of secondary antibody (Dako P0260 Rabbit anti-mouse horseradish peroxidase) at 1:1000 dilution in blocking buffer was added to the wells. Plates were incubated at 37° C. in a shaking incubator for 60 min. Antibody was discarded and plates were washed 6 times by immersion in 0.85% NaCl/0.05% Tween-20 and once in PBS. Finally, 50 μl of substrate (SigmaFast ortho-phenylene diamine dihydrochloride (OPD)) was added per well and the colorimetric reaction was allowed to proceed in the dark for 5 to 15 minutes depending on the strength or the signal. The reaction was stopped by addition of 25 μl/well of 20% sulphuric acid. Plates were read on the SpectraMax microplate reader at 490 nm fixed wavelength. […]

[2] = test system: HCV replicon cells Huh 9B (genotype 1b); experiment: 1b Replicon Assay (luciferase readout); type: cell-based; details: Hepatitis C virus, Huh 9B replicon cells, 72 h, luciferase activity
Procedure: HCV replicon cells Huh 9B (ReBlikon), containing the firefly luciferase-ubiquitin-neomycin phosphotransferase fusion protein and EMCV-IRES driven HCV polyprotein with cell culture adaptive mutations.
Cells were cultured at 37° C./5% CO2 and split twice a week. G418 at 0.5 mg/ml was added to the culture medium but not the assay medium.
The culture medium consisted of DMEM with […] glucose and Glutamax (Gibco 61965-026) supplemented with 1× non-essential amino acids (Invitrogen 11140-035), 0.5 mg/ml G418 (Invitrogen 10131-027) and 10% Australian foetal calf serum (Invitrogen 10099-141).
Replicon cells were trypsinised and counted. Cells were diluted to 100,000 cells/ml and 100 μl used to seed one opaque white 96-well plate (for the replicon assay) and one flat-bottomed clear plate (for the tox assay) for every five compounds to be tested for IC50. Wells G12 and H12 were left empty in the clear plate as the blank. Plates were then incubated at 37° C./5% CO2 for 24 h.
On the following day compound dilutions were prepared in medium at twice their desired final concentration in a clear round bottomed plate. All dilutions have a final DMSO concentration of 1%.
Controls and compounds were transferred from the dilution plates to the assay plates (containing the cells) at 100 μl/well in duplicate wells.
Exception: no compound was added to wells A1 and A2 of either plate and 100 μl of 1% DMSO was added to these instead. Plates were then incubated at 37° C./5% CO2 for 72 h.
At the end of the incubation time, the cells in the white plate were washed in PBS (100 μL per well) and dried by tapping before addition of 204 per well of lysis buffer (25 mM tris-phosphate, 8 mM MgCl2, 1 mM DTT, 1% Triton X-100, 15% glycerol; pH to 7.8 using KH2PO4 prior to Triton X-100 and glycerol addition). Aliquots of substrate (23.5 mM beetle luciferin (Promega E1603), 26 mM ATP (Sigma O-2060) in […] Tris buffer pH 7.8) were stored at −80° C. Prior to use, required amount of luciferin was thawed and diluted 1:50 in luciferase assay buffer (20 mM Tricine (Sigma T-0377), 1.07 mM magnesium carbonate hydroxide (Sigma M-5671), 0.1 mM EDTA (Sigma E-5134), 2.67 mM MgSO4(BDH 101514Y), 33.3 mM dithiothreitol (Sigma 150460) pH 7.8).
After 5-60 min incubation in lysis buffer at room temperature, a plate was inserted into the luminometer and 100 μl luciferase assay reagent was added by the injector of the luminometer. The signal was measured using a 1 second delay followed by a 4 second measurement programme. The IC50, the concentration of the drug required for reducing the replicon level by 50% in relation to the untreated cell control value, was calculated from the plot of the percentage reduction of the luciferase activity vs. drug concentration.

[3] = read-out: pIC50 1a Replicon (converted)
[4] = read-out: pIC50 1b Replicon (converted)

| Structure (SMILES) | IC50 ([1]; read-out: HCV IC50 Elisa 1a) [nM] | IC50 [1, 3] [nM] | IC50 ([2]; read-out: HCV IC50 1b Replicon) [nM] | IC50 [2, 4] [nM] |
| --- | --- | --- | --- | --- |
| COC(=O)N[C@H](C(=O)N1CCCC[C@H]1c1ncc(-c2ccc(-c3ccc(C(=O)Nc4ccc(CN5CCS(=O)(=O)CC5)cc4)cc3)cc2)[nH]1)c1ccccc1 [Example 51, Methyl N-[(1S)-2-[(2S)-2-[5-[4-[4-[[4-[(1,1-dioxo-1,4-thiazinan-4-yl)methyl]phenyl]carbamoyl]phenyl]phenyl]-1H-imidazol-2-yl]-1-piperidyl]-2-oxo-1-phenyl-ethyl]carbamate] | 95 | 95.5 | 0.79 | 0.794 |
| CC(C)[C@H](N)C(=O)N1CCC[C@H]1c1ncc(-c2ccc(-c3ccc(C(=O)Nc4ccc(CN5CCS(=O)(=O)CC5)cc4)cc3)cc2)[nH]1 [Example 10, 4-[4-[2-[(2S)-1-[(2S)-2-amino-3-methyl-butanoyl]pyrrolidin-2-yl]-1H-imidazol-5-yl]phenyl]-N-[4-[(1,1-dioxo-1,4-thiazinan-4-yl)methyl]phenyl]benzamide] | 320 | 324 | 65.2 | 64.6 |
| CCCS(=O)(=O)N1CCN(Cc2ccc(NC(=O)c3ccc(-c4ccc(-c5cnc([C@@H]6CCCN6C(=O)[C@H](C)NC(=O)OC)[nH]5)cc4)cc3)cc2)CC1 [Example 41, Methyl N-[(1S)-1-methyl-2-oxo-2-[(2S)-2-[5-[4-[4-[[4-[(4-propylsulfonylpiperazin-1-yl)methyl]phenyl]carbamoyl]phenyl]phenyl]-1H-imidazol-2-yl]pyrrolidin-1-yl]ethyl]carbamate] | 47 | 46.8 | 1.15 | 1.15 |
| CCCS(=O)(=O)N1CCN(Cc2ccc(NC(=O)c3ccc(-c4ccc(-c5cnc([C@@H]6CCCN6C(=O)[C@@H](c6ccccc6)N(C)C)[nH]5)cc4)cc3)cc2)CC1 [Example 45, 4-[4-[2-[(2S)-1-[(2R)-2-(dimethylamino)-2-phenyl-acetyl]pyrrolidin-2-yl]-1H-imidazol-5-yl]phenyl]-N-[4-[(4-propylsulfonylpiperazin-1-yl)methyl]phenyl]benzamide] | 79.5 | 79.4 | 0.03 | 0.0263 |
| CCCS(=O)(=O)N1CCN(Cc2ccc(NC(=O)c3ccc(-c4ccc(-c5cnc([C@@H]6CCCN6C(=O)[C@@H](NC(=O)OC)c6ccccc6)[nH]5)cc4)cc3)cc2)CC1 [Example 42, Methyl N-[(1S)-2-oxo-1-phenyl-2-[(2S)-2-[5-[4-[4-[[4-[(4-propylsulfonylpiperazin-1-yl)methyl]phenyl]carbamoyl]phenyl]phenyl]-1H-imidazol-2-yl]pyrrolidin-1-yl]ethyl]carbamate] | 97.4 | 97.7 | 0.05 | 0.0537 |
| CC(C)(C)OC(=O)NCC(=O)N1CCC[C@H]1c1ncc(-c2ccc(-c3ccc(C(=O)Nc4ccc(CN5CCS(=O)(=O)CC5)cc4)cc3)cc2)[nH]1 [Example 12, tert-Butyl N-[2-[(2S)-2-[5-[4-[4-[[4-[(1,1-dioxo-1,4-thiazinan-4-yl)methyl]phenyl]carbamoyl]phenyl]phenyl]-1H-imidazol-2-yl]pyrrolidin-1-yl]-2-oxo-ethyl]carbamate] | 164 | 162 | 106 | 105 |
| COC(=O)N[C@H](C(=O)N1CCCC[C@H]1c1ncc(-c2ccc(-c3ccc(C(=O)Nc4ccc(CN5CCS(=O)(=O)CC5)cc4)cc3)cc2)[nH]1)C(C)C [Example 50, methyl N-[(1S)-1-[(2S)-2-[5-[4-[4-[[4-[(1,1-dioxo-1,4-thiazinan-4-yl)methyl]phenyl]carbamoyl]phenyl]phenyl]-1H-imidazol-2-yl]piperidine-1-carbonyl]-2-methyl-propyl]carbamate] | 28.2 | 28.2 | 2.98 | 2.95 |
| CC(C)(C)OC(=O)N[C@H](C(=O)N1CCCC[C@H]1c1ncc(-c2ccc(-c3ccc(C(=O)Nc4ccc(CN5CCS(=O)(=O)CC5)cc4)cc3)cc2)[nH]1)c1ccccc1 [Example 52, tert-Butyl N-[(1S)-2-[(2S)-2-[5-[4-[4-[[4-[(1,1-dioxo-1,4-thiazinan-4-yl)methyl]phenyl]carbamoyl]phenyl]phenyl]-1H-imidazol-2-yl]-1-piperidyl]-2-oxo-1-phenyl-ethyl]carbamate] | 185 | 186 | 0.41 | 0.407 |
| CN(C)[C@@H](C(=O)N1CCC[C@H]1c1ncc(-c2cccc(-c3ccc(C(=O)Nc4ccc(CN5CCS(=O)(=O)CC5)cc4)cc3)c2)[nH]1)c1ccccc1 [Example 39, 4-[3-[2-[(2S)-1-[(2R)-2-(dimethylamino)-2-phenyl-acetyl]pyrrolidin-2-yl]-1H-imidazol-5-yl]phenyl]-N-[4-[(1,1-dioxo-1,4-thiazinan-4-yl)methyl]phenyl]benzamide] | 1100 | 1100 | 4.81 | 4.79 |
| CCCS(=O)(=O)N1CCN(Cc2ccc(NC(=O)c3ccc(-c4ccc(-c5cnc([C@@H]6CCCN6C(=O)[C@H](NC(=O)OC)c6ccccc6)[nH]5)cc4)cc3)cc2)CC1 [Example 43, Methyl N-[(1R)-2-oxo-1-phenyl-2-[(2S)-2-[5-[4-[4-[[4-[(4-propylsulfonylpiperazin-1-yl)methyl]phenyl]carbamoyl]phenyl]phenyl]-1H-imidazol-2-yl]pyrrolidin-1-yl]ethyl]carbamate] | 77.7 | 77.6 | 0.05 | 0.055 |
